Measured values from US12202835B2, “Substituted aromatic ring-linked dioxinoquinazolines and dioxinoquinolines as kinase inhibitors” (BEIJING SCITECH-MQ PHARMACEUTICALS LIMITED, priority 2018, dated 2025).

How the values were obtained:
VEGFR-2 kinase = VEGFR-2 kinase (Homo sapiens (Human), UniProt P35968); assay: Assay of small molecular compounds for inhibiting the activity of VEGFR-2 kinase (LANCE TR-FRET); format: biochemical; settings: read-out: VEGFR2 IC50
How it was run: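 LANCE TR-FRET with human VEGFR-2 (2× stock 0.5 nM) preincubated 30 min with compound (final 2500 to 0.042 nM, 11-point 3-fold), then ULight-JAK-1 (Tyr1023) peptide/ATP added (4× stocks 200 nM/40 μM). Reaction 60 min room temperature, 4% DMSO; IC50 from inhibition-rate curve.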

MHCC97H cells = assay: Assay for inhibiting the proliferation of MHCC97H cells (CCK-8); format: cell-based; settings: Homo sapiens
How it was run: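 Cells seeded in 96-well plates overnight, then exposed 72 h to 9 three-fold dilutions of compound (0.25% DMSO final). Viability by CCK-8 (1-2 h at 37° C., OD 450 nm), survival normalized to untreated and cell-free blanks; IC50 by curve fitting.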

c-MET kinase = c-MET kinase (Homo sapiens (Human), UniProt P08581); assay: Assay of small molecular compounds for inhibiting the activity of c-MET kinase (LANCE TR-FRET); format: biochemical; settings: read-out: CMET IC50
How it was run: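 LANCE TR-FRET assay with c-MET at 1 nM final after a 5 min room-temperature preincubation with compound (11-point, 3-fold series, 2500–0.042 nM final, 4% DMSO). ULight-JAK-1 (Tyr1023) peptide (100 nM final) and ATP (10 μM final) reacted 60 min in the dark. Inhibition was taken relative to controls, then IC50 fitted.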

Measured: IC50

Sequence of c-MET kinase (P08581 25-1390): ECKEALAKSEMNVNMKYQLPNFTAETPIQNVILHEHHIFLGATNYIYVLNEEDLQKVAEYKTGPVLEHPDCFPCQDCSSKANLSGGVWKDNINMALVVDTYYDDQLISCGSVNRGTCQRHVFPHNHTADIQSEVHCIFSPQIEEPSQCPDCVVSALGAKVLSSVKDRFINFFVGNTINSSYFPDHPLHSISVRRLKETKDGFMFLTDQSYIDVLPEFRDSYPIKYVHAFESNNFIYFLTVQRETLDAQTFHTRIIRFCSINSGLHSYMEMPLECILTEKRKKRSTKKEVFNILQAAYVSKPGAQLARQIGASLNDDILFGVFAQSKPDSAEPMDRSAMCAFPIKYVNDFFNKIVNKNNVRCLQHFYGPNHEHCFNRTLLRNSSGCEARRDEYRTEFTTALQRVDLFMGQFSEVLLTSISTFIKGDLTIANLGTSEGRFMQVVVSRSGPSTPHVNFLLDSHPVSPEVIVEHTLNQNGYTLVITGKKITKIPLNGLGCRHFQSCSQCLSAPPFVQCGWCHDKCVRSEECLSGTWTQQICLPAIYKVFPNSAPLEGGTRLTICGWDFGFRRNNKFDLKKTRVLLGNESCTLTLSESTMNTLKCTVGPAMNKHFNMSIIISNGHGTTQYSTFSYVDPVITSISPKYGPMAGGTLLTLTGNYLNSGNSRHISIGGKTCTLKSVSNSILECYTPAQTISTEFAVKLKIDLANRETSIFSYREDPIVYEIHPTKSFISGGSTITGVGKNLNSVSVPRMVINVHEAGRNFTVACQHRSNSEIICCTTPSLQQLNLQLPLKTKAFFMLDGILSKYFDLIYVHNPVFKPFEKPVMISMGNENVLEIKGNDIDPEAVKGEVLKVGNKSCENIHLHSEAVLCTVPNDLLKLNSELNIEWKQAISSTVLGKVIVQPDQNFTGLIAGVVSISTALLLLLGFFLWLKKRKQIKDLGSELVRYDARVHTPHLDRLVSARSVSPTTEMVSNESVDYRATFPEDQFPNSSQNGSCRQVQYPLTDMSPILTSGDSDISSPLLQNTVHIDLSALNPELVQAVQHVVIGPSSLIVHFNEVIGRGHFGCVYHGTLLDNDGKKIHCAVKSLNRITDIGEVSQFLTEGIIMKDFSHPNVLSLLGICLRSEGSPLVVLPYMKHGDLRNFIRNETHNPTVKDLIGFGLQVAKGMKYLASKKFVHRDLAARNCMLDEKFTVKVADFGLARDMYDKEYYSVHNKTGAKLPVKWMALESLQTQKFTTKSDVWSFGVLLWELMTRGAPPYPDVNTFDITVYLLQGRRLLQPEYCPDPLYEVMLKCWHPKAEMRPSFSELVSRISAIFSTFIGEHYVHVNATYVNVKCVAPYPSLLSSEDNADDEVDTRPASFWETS
Sequence of VEGFR-2 kinase (P35968 20-1356): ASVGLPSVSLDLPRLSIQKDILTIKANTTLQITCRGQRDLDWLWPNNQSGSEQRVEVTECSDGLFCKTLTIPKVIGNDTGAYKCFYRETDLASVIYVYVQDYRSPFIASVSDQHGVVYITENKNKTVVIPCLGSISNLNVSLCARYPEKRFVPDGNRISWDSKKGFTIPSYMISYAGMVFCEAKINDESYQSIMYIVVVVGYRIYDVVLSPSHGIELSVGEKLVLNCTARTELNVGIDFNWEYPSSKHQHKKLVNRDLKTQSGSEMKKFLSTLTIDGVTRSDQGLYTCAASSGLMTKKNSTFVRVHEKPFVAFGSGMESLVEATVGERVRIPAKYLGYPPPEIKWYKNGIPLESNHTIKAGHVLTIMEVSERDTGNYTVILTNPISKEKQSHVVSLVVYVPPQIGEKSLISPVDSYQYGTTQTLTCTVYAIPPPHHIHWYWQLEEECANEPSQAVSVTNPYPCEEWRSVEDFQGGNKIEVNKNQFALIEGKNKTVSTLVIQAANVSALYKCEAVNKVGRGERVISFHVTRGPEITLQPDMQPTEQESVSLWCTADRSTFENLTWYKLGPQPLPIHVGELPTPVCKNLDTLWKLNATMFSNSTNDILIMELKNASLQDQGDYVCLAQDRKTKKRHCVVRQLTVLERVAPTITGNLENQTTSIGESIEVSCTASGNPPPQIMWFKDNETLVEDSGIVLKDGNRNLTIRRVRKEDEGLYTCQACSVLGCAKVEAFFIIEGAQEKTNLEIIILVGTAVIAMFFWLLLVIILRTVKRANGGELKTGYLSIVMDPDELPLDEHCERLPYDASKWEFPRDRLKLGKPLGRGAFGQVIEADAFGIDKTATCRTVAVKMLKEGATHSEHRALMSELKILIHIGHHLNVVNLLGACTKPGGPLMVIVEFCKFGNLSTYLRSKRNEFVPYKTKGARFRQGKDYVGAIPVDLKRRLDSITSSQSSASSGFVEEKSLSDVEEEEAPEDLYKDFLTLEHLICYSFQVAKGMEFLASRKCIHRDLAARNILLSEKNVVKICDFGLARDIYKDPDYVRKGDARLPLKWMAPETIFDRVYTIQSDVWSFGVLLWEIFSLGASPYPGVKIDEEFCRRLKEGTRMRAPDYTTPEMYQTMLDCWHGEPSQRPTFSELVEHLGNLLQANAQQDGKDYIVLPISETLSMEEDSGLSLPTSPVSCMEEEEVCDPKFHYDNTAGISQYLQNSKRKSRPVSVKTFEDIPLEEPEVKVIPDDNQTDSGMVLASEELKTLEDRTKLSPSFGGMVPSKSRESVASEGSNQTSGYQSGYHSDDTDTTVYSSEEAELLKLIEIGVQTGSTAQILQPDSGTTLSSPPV

CCOc1ccn(-c2ccc(F)cc2)c(=O)c1C(=O)Nc1ccc(Oc2ccnc3cc(OC)c4c(c23)OCCO4)c(F)c1 [Example 19, N-(3-fluoro-4-((5-methoxy-2,3-dihydro-[1,4]dioxino[2,3-f]quinolin-10-yl)oxy)phenyl)-1-(4-fluorophenyl)-4-ethoxy-2-oxo-1,2-dihydropyridine-3-carboxamide]
≤ 50 nM: all assays above
